Measured values as given in patent US20230192646A1, “DIHYDRO-CYCLOPENTA-ISOQUINOLINE DERIVATIVES” (UCB Biopharma SRL, priority 2019, published 2023).
pIC50: −log10 of the molar value.

Molecular target: T1, IgE-Tb / FcεR1α-Y131A-AF488 (soluble IgE receptor FcεR1α with a Y131A mutation) (Homo sapiens, UniProt P0DOX4, C225A/N265Q/N371Q)
T1 construct: 86 nmoles of IgE-Fc(N265Q, N371Q) (Young et al., 1995)
Assay: In vitro FRET assay of IgE-Tb binding to FcεR1α-Y131A-AF488, 2 hours incubation (examples 16 and 89)
Conditions: 5 nM IgE-Tb, 25 nM FcεR1α-Y131A-AF488; 2 hours at room temperature; read-out: FRET IC50 range
Description: 86 nmoles of IgE-Fc(N265Q, N371Q) (Young et al., 1995) at 172 μM in 100 mM NaHCO3, pH 9.5 was added to 1 mg of LanthaScreen™ Amine Reactive Tb Chelate (ThermoFisher catalogue number PV3583) and incubated for 16 hours at 20° C. The material was then buffer exchanged into Phosphate Buffered Saline (being, 137 mM NaCl, 2.7 mM KCl, 10 mM Na2HPO4, 1.8 mM K2HPO4, pH 7.4) and the material quantified and the degree of Tb conjugation determined by measuring the absorption at 280 nm and 343 nm.
400 nmoles FcεR1α (Y131A mutant) (Cook et al., 1997) at 400 μM in 100 mM NaOAc pH 5.5 was reacted with 1 mM final concentration sodium periodate (in 100 mM NaOAc, pH 5.5) for 60 minutes at 22° C. […]
175 nmoles of protein was added to 1 mg of Alexa Fluor™ 488 hydrazide (Invitrogen) and incubated for 16 hours at 22° C. […] The protein was buffer exchanged into Phosphate Buffered Saline (being, 137 mM NaCl, 2.7 mM KCl, 10 mM Na2HPO4, 1.8 mM K2HPO4, pH 7.4) and the material quantified and the degree of Alexa Fluor™ 488 conjugation determined by measuring the absorption at 280 nm and 495 nm.
The aim was to measure binding of IgE-Tb to receptor, and the inhibition thereof by compounds, using an in vitro Fluorescence Resonance Energy Transfer (FRET) Assay. […]
Measurement of FRET for each well was carried out by exciting at 330 nm and measuring emission at 495/520 nm using an Envision plate reader (Perkin Elmer). […]

T1 sequence (P0DOX4 224-547 C225A/N265Q/N371Q): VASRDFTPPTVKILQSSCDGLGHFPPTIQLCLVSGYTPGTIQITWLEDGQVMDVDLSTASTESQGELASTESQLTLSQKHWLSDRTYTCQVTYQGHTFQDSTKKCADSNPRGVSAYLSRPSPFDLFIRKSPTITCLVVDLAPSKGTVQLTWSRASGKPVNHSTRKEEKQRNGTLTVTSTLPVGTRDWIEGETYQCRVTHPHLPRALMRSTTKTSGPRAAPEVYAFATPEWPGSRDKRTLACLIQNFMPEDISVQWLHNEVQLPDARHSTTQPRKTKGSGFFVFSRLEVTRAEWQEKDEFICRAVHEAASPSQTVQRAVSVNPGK

SMILES	pIC50
CCNC(=O)N[C@H]1C[C@H](O)c2cc(S(=O)(=O)NCC(C)C)c3cc(C4CC4)ncc3c21 (racemic) [Example 16, 1-ethyl-3-[trans-(7RS,9RS)-3-cyclopropyl-7-hydroxy-5-(2-methylpropylsulfamoyl)-8,9-dihydro-7H-cyclopenta[h]isoquinolin-9-yl]urea]	5.70 to 7.00
CC(C)(F)CNS(=O)(=O)c1cc2c(c3cnc(C4CC4)cc13)C(N)CC2NC(=O)c1cccnc1 (centres unmarked) [Example 89, N-[9-amino-3-cyclopropyl-5-[(2-fluoro-2-methylpropyl)sulfamoyl]-8,9-dihydro-7H-cyclopenta[h]isoquinolin-7-yl]pyridine-3-carboxamide]	5.70 to 7.00
